Test results taken from ChEMBL document CHEMBL1201862, “PubChem BioAssay data set” (2004).
Calls of active or inactive are those of the source.

How the values were obtained:
[1] = NIH-3T3 fibroblast cytotoxicity, dose response, cytotoxicity control, cell-based, fluorescence, Alamar Blue, secondary assay (AID 2327); assay type: functional;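 note: NIH-3T3 mouse fibroblasts cultured with fluconazole at 8 µg/mL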
[2] = C. albicans growth with fluconazole, confirmation, fluorescence, retest (AID 2467); assay type: functional, cell-based
[3] = biological target: T1, Rac GTPase-activating protein 1 (Homo sapiens, UniProt Q9H0H5); test: MgcRacGAP GTPase-activating activity inhibitors, confirmation, biochemical, ADP Hunter fluorescence, primary and confirmatory (AID 624330); assay type: functional
T1 sequence (Q9H0H5 whole entry): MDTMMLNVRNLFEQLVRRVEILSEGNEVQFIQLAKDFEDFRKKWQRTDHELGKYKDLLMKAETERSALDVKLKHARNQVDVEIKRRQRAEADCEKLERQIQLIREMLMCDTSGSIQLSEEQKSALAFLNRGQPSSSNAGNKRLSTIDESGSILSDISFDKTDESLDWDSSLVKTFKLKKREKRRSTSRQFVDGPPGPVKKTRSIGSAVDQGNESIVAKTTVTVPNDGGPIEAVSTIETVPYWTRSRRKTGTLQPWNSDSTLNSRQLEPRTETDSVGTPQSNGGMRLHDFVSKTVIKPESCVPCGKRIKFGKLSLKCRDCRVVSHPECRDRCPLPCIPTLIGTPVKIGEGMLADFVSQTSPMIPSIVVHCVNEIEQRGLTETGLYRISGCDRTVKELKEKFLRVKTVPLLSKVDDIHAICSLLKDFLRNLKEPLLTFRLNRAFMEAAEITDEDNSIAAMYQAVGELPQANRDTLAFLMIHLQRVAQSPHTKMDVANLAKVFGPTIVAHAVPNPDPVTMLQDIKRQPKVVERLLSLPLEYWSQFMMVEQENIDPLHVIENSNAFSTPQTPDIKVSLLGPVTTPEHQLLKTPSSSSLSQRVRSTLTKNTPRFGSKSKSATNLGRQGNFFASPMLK

Cytochrome P450 2C9 = Cytochrome P450 2C9 (Homo sapiens, UniProt P11712)
Cytochrome P450 1A2 = biological target: T2, Cytochrome P450 1A2 (Homo sapiens, UniProt P05177);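 note: PubChem cytochrome P450 panel assay, CYP1A2 panel member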
T2 sequence (P05177 whole entry): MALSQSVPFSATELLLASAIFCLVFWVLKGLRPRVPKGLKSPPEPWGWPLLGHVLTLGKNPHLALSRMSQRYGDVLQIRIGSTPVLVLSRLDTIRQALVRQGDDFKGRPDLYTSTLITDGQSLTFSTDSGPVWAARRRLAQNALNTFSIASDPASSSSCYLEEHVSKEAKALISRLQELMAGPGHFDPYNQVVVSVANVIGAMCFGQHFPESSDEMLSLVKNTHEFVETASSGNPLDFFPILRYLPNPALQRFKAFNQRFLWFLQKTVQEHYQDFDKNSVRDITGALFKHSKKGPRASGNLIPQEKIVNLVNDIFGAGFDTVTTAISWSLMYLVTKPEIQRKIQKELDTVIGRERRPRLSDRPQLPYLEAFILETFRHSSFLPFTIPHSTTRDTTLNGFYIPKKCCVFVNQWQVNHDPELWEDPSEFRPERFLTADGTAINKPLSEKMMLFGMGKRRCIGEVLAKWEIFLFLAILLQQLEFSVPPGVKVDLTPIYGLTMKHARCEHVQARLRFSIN

H4 = test: Luminescence Cell-Based Dose Response HTS to Identify Activators of 5'UTR Stem-Loop Driven Prion Protein mRNA Translation in H4 Neuroglioblastoma Cells. [Related pubchem assays: 1829 (Project Summary), 1814 (Primary HTS)]; assay type: functional; conditions: Homo sapiens
[4] = Luminescence Cell-Based Dose Response HTS to Identify Activators of Luciferase Translation or Activity in H4 […] Cells. [Related pubchem assays: 1829 (Project Summary), 1814 (Primary HTS)]; assay type: functional
[5] = Luminescence Cell-Based Dose Confirmation HTS to Identify Activators of 5'UTR Stem-Loop Driven Alpha-Synuclein mRNA Translation in H4 Neuroglioblastoma Cells. [Related pubchem assays: 1829 (Project Summary), 1814 (Primary HTS)]; assay type: functional
cells = assay type: functional
[6] = Luminescence Cell-Based Dose Retest to Confirm Inhibitors of Cancer Stem Cells. [Related pubchem assays (depositor defined):AID2717, AID2721]; assay type: functional; conditions: Homo sapiens
Protein RecA = biological target: T3, Protein RecA (Mycobacterium tuberculosis, UniProt P9WHJ3); test: Fluorescence Cell-Free Homogeneous Dose Retest to Identify Inhibitors of RecA-Intein Splicing Activity. [Related pubchem assays (depositor defined):AID2097, AID2223, AID489010, AID492950]; assay type: functional
T3 sequence (P9WHJ3 whole entry): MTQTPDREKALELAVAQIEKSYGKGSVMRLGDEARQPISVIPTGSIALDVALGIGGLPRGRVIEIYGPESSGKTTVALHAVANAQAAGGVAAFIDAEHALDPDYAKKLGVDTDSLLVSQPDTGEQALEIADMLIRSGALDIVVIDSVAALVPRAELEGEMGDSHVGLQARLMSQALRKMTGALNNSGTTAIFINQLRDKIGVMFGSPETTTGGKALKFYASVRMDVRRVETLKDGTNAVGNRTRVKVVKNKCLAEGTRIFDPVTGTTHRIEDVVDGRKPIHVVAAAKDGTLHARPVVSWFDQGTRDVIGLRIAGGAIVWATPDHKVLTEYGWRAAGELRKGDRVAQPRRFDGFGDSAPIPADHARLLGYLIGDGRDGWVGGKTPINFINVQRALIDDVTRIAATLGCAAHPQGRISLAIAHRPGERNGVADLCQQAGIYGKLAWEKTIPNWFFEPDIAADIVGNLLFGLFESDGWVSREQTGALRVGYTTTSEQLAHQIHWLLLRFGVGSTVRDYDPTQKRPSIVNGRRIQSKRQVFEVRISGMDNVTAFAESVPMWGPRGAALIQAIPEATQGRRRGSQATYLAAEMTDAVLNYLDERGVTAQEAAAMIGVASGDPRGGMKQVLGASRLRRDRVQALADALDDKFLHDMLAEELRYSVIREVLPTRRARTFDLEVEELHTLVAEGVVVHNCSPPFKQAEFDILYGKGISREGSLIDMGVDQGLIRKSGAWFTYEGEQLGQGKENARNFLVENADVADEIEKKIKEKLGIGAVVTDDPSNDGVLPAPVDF

[7] = biological target: T4, Replicative DNA helicase DnaB (Mycobacterium tuberculosis, UniProt P9WMR3); test: DnaB intein splicing inhibitors, dose response, biochemical, cell-free fluorescence (AID 449749); assay type: functional
T4 sequence (P9WMR3 whole entry): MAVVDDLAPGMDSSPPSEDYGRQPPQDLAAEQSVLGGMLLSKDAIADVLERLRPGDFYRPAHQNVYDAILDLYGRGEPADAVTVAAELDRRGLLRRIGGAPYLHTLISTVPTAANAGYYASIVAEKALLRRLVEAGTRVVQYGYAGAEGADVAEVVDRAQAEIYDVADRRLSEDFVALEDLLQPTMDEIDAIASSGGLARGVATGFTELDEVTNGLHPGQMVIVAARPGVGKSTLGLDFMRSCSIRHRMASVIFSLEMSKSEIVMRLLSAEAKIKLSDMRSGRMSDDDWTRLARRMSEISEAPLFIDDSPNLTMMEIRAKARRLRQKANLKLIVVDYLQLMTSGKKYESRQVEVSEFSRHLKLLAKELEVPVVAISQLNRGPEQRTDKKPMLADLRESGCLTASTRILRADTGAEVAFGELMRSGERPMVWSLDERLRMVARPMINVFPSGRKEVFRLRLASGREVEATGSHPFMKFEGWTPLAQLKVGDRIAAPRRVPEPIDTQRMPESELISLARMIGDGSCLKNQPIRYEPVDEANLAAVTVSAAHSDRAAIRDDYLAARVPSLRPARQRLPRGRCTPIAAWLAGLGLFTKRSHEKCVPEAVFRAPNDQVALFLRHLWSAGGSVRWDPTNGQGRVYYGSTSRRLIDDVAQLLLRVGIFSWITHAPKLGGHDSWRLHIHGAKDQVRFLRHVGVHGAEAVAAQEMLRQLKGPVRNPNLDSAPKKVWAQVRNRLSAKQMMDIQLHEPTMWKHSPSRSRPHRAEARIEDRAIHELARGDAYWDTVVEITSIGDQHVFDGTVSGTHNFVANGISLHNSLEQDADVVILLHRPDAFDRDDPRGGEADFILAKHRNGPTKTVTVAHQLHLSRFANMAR

Cytochrome P450 3A4 = Cytochrome P450 3A4 (Homo sapiens, UniProt P08684);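 note: CYP3A4 tested as one member of a cytochrome P450 panel screen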
Cytochrome P450 2C19 = Cytochrome P450 2C19 (Homo sapiens, UniProt P33261); test: Cytochrome panel assay with activity outcomes. Panel member name: p450-cyp2c19 Compounds with AC50 equal or less than 10 uM are considered active; assay type: functional; conditions: read-out: AC50
Cytochrome P450 2C19, sequence (P33261 whole entry): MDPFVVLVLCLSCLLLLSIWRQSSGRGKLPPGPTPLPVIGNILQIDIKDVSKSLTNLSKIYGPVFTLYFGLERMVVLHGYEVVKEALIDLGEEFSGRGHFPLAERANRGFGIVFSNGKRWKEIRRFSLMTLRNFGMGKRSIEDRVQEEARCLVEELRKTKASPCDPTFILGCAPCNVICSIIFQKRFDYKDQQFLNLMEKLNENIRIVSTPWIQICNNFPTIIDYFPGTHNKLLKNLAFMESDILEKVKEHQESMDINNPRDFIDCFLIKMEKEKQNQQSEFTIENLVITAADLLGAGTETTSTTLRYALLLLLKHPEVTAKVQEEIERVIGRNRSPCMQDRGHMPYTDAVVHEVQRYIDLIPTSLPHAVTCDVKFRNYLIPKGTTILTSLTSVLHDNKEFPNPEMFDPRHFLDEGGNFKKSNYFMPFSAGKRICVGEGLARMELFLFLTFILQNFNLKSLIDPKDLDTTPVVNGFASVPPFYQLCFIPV

Cytochrome P450 2C9, sequence (P11712 whole entry): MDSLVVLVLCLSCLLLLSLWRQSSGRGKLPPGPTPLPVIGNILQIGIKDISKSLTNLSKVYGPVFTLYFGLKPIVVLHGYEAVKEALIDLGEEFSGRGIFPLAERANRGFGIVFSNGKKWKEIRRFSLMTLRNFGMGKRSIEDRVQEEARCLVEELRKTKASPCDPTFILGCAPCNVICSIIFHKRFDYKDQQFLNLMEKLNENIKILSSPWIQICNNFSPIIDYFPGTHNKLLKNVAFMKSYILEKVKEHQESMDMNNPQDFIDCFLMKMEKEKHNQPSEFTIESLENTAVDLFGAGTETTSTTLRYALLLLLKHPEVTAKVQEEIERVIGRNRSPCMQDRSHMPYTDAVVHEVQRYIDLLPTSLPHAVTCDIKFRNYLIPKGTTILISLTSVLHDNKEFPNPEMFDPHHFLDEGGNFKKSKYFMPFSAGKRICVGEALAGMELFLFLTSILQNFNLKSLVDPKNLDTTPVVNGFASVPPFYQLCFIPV
Cytochrome P450 3A4, sequence (P08684 whole entry): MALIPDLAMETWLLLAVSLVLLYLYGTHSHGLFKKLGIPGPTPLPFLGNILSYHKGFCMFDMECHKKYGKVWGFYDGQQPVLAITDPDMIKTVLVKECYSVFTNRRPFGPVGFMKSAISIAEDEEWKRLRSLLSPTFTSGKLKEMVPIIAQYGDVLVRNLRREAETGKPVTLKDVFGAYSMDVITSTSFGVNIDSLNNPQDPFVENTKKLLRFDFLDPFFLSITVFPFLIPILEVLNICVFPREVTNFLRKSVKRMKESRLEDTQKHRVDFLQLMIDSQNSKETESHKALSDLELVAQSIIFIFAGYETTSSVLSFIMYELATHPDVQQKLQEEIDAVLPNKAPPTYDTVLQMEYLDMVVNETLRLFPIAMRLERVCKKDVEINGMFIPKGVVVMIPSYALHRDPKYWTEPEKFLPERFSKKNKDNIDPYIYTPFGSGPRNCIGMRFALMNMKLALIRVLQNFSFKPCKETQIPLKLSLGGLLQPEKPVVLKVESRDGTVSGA

## O=C(Cn1c2ccc(F)cc2c2nc3n(c(=O)c21)CCS3)N1CCCC1
[1]
  EC50: > 160 µM (inactive)
[2]
  EC50: 0.66 µM (active)

## COC(=O)c1cc(NCc2cccs2)ccc1N1CCOCC1
[3]
  IC50: 135 µM (active)

## O=c1c(-c2ccccc2)nc2cnc(N3CCOCC3)nc2n1Cc1ccc(F)cc1
Cytochrome P450 2C9
  AC50: 15.8 µM (inconclusive)
Cytochrome P450 1A2
  AC50: 20 µM (inconclusive)

## Cc1ccc(-c2cc(C(=O)N3CCCc4ccccc43)no2)cc1
H4
  EC50: 11.8 µM (active)
[4]
  EC50: > 120 µM (not active)
[5]
  EC50: 52.4 µM (active)

## O=C(Nc1nnc(-c2ccccn2)o1)c1ccc(Br)cc1
[1]
  EC50: 18.3 µM (inconclusive)
[2]
  EC50: > 38 µM (not active)

## Cc1ccc(NC(=O)CCNCc2ccco2)cc1S(=O)(=O)N(C)C
[3]
  IC50: 229 µM (active)

## O=[N+]([O-])c1ccc(N2CCN(Cc3ccc([N+](=O)[O-])o3)CC2)cc1
cells
  IC50: < 100 nM (active)
[1]
  EC50: > 150 µM (inactive)
[2]
  EC50: > 38 µM (not active)

## O=c1c(CCc2ccccc2)nc2cnc(N3CCOCC3)nc2n1CCc1ccccc1
Cytochrome P450 2C9
  AC50: 2 µM (inconclusive)
Cytochrome P450 1A2
  AC50: 25.1 µM (inconclusive)

## N=c1n(CCN2CCOCC2)c2ccccc2n1CC(=O)c1ccc(Cl)c(Cl)c1
H4
  EC50: 41.8 µM (inconclusive)
[4]
  EC50: > 120 µM (not active)
[5]
  EC50: > 120 µM (not active)

## Cc1cc(C)c(C)c(S(=O)(=O)N2CCN(c3ccc(O)cc3)CC2)c1C
[6]
  AC50: 8.83 µM (active)
[3]
  IC50: 85.9 µM (active)

## Cc1ccc(CNC(=O)CCN2C(=O)[C@@H]3Cc4ccccc4CN3C2=O)cc1
Protein RecA
  EC50: > 380 µM (inactive)
[7]
  AC50: 373 µM (active)

## CC1(S(=O)(=O)O)CC(=O)c2ccccc2C1=O (stereo not given)
Protein RecA
  EC50: 3.03 µM (active)
[7]
  AC50: 5.26 µM (active)

## CCCCC(=O)NC(c1cccc([N+](=O)[O-])c1)c1c(OC(C)=O)ccc2ccccc12 (stereo not given)
Protein RecA
  EC50: 25.4 µM (active)
[7]
  AC50: 41.6 µM (active)

## O=[N+]([O-])/C(C(Cl)=C(Cl)Cl)=C(/Sc1ccccc1)N1CCCCC1
Protein RecA
  EC50: 7.05 µM (active)
[7]
  AC50: 3.88 µM (active)

## Cc1cccc2cc(C#N)c(SCc3nnc(-c4ccccc4[N+](=O)[O-])o3)nc12
H4
  EC50: 18.4 µM (active)
[4]
  EC50: 75.4 µM (active)
[5]
  EC50: > 120 µM (not active)

## O=C(CN1C(=O)S/C(=C\C=C\c2ccccc2)C1=O)Nc1cccc(O)c1
H4
  EC50: 49.2 µM (active)
[4]
  EC50: 40.1 µM (active)
[5]
  EC50: 16.4 µM (active)

## O=C(Nc1cccc(OC(=O)c2ccc(Br)o2)c1)c1ccccc1
Protein RecA
  EC50: 9.2 µM (active)
[7]
  AC50: 0.0485 µM (inconclusive)

## CCCc1n[nH]c2c1C(c1ccc(O)c(OC)c1)C(C#N)=C(N)O2 (stereo not given)
Protein RecA
  EC50: 8.18 µM (active)
[7]
  AC50: 57.1 µM (active)

## COC(=O)C1C(=O)C=C(Nc2ccc(F)cc2F)CC1c1ccccc1 (stereo not given)
H4
  EC50: 17.6 µM (active)
[4]
  EC50: 95.6 µM (active)
[5]
  EC50: > 120 µM (not active)

## COc1ccccc1C(OC(=O)c1cccs1)C(=O)NCC1CCCO1 (stereo not given)
Cytochrome P450 3A4
  AC50: 25.1 µM (inconclusive)
Cytochrome P450 2C19
  AC50: 5.01 µM (inconclusive)
Cytochrome P450 2C9
  AC50: 14.1 µM (inconclusive)
Cytochrome P450 1A2
  AC50: 14.1 µM (inconclusive)

## O=C(c1cc(-c2cccc(Cl)c2)on1)N1CCOCC1
H4
  EC50: 21.1 µM (active)
[4]
  EC50: 26.4 µM (active)
[5]
  EC50: 4.22 µM (active)

## Cc1ccc(C(C)(C)NC(=O)C2CCC(=O)N(C3CCCCCC3)C2)cc1 (stereo not given)
H4
  EC50: > 120 µM (not active)
[4]
  EC50: 10.2 µM (active)
[5]
  EC50: 83.3 µM (active)

## Oc1ccc(NCc2ccc(OCc3ccccc3)cc2)cc1
[3]
  IC50: 60.5 µM (active)

## COc1cc(/C=C/C(=O)OCC(=O)c2ccc(OC(F)F)cc2)ccc1O
[3]
  IC50: 64 µM (active)

## Nc1cc(Cc2ccccc2)ccc1O
[3]
  IC50: 18 µM (active)

## C/C(=N\N1C(=O)CSC1=S)c1ccc(Br)cc1
[1]
  EC50: > 160 µM (inactive)
[2]
  EC50: > 38 µM (not active)

## Cc1cccc(/C=N/c2ccc3c4c(cccc24)CC3)c1O
[3]
  IC50: 20 µM (active)

## COc1cccc(/C=N/NC(=O)CCn2nnc3ccccc32)c1
H4
  EC50: > 120 µM (not active)
[4]
  EC50: > 120 µM (not active)
[5]
  EC50: > 120 µM (not active)

## COC(=O)/C(=N\Nc1ccc(Cl)cc1)Sc1nnc(-c2ccc(OC)cc2)n1C
[1]
  EC50: > 160 µM (inactive)
[2]
  EC50: > 38 µM (not active)

## O=C1c2ccccc2C(Cc2ccncc2)(Cc2ccncc2)c2ccccc21
Cytochrome P450 2C9
  AC50: 20 µM (inconclusive)
Cytochrome P450 1A2
  AC50: 39.8 µM (inconclusive)
